Read-outs that look alike come from different tables or passages of the source.
Assays:
[1] = target: T1, CDK6-CYCLIND3 (Homo sapiens, UniProt Q00534); experiment: CDK inhibition assay (microfluidic LabChip, IC50 format); format: biochemical
T1 construct: purchased Carna

[2] = target: CDK4-CYCLIND1 (Homo sapiens, UniProt P11802); experiment: as above
Method: Inhibition assays were performed using microfluidic LabChip 300 Drug Discovery System from Caliper Life Sciences. […] The assay has a total volume of 10 μL consisting of 5 μL of enzyme and buffer and 5 μL of substrate and buffer. The test compounds were diluted in 100% dimethylsulfoxide (DMSO) using 3-fold dilution steps. […] Compounds were tested in a single well for each dilution and the final concentration of DMSO was maintained at 1%.
The assay buffer contained 100 mM HEPES, pH 7.5, 0.01% Triton X-100, 0.1% bovine serum albumin (BSA), 5 mM MgCl2; 1 mM dithiothreitol (DTT), 10 μM sodium orthovanadate, and 10 μM β-glycerophosphate.
The assay was conducted by adding 5 μL of enzyme, adenosine triphosphate (ATP) and buffer to an assay plate. A 100 nL aliquot of the diluted compounds were added to the plate. The assay was initiated by the addition of 5 μL of phosphoenolpyruvate substrate (PEP) in buffer. […] The reaction was terminated by the addition of EDTA. The plates were analyzed using a Caliper LabChip 3000.
Additional inhibition assays were performed as described above.
The assays were conducted as described above for the racemates.

[3] = Table 4b, upper part, read-out: CDK6 IC50
[4] = CDK4 IC50, Table 4b, upper part
[5] = Table 4b, lower part, read-out: CDK6 CyclinD3 IC50
[6] = CDK4 CyclinD1 IC50, Table 4b, lower part, a second value in parentheses for some compounds

T1 sequence (Q00534 whole entry): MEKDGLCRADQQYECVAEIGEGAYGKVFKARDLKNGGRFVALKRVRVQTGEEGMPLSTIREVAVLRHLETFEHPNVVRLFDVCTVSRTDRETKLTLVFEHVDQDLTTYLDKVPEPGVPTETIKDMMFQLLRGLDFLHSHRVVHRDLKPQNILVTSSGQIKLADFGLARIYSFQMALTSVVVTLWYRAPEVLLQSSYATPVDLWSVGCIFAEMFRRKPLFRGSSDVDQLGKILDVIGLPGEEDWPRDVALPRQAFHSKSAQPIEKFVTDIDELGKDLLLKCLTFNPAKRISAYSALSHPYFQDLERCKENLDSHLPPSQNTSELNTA
T1 sequence (P30281 whole entry partner): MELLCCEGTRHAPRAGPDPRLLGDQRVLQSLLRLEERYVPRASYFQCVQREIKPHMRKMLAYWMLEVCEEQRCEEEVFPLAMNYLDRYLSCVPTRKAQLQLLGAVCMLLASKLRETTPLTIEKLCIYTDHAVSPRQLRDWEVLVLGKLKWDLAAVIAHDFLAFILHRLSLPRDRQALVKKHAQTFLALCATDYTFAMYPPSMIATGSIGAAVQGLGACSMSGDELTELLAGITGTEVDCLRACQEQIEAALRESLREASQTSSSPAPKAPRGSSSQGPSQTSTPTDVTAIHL
Chain of CDK4-CYCLIND1 (P11802 whole entry): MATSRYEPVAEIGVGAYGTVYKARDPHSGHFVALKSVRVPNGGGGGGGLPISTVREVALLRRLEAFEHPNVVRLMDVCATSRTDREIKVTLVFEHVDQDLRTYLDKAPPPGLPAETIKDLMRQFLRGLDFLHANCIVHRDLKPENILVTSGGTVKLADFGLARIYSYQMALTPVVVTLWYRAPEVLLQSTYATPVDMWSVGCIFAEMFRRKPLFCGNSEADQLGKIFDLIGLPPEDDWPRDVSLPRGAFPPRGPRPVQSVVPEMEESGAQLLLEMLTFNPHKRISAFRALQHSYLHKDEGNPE
Chain of CDK4-CYCLIND1 (P24385 whole entry partner): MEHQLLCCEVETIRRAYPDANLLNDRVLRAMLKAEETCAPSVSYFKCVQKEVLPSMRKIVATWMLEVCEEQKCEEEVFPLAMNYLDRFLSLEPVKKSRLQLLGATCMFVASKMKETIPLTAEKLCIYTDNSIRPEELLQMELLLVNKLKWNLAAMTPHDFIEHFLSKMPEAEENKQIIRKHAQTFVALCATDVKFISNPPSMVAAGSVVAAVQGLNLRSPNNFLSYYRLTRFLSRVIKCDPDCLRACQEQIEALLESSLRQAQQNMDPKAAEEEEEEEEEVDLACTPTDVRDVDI

| IC50 [1, 3] [nM] | IC50 [2, 4] [nM] | IC50 [1, 5] [nM] | IC50 [2, 6] [nM] | IC50 ([1]; Table 3, second value of the cell CDK4/CDK6, value of the racemate, read-out: Racemate Activity CDK6) [nM] | IC50 ([2]; Racemate Activity CDK4, Table 3, first value of the cell CDK4/CDK6, value of the racemate) [nM] | SMILES |
| --- | --- | --- | --- | --- | --- | --- |
| 3.92 | 2.06 |  |  |  |  | CN1CCN(c2ccc(Nc3ncc4c(n3)N(C3CCCC3)C(=O)C3(CCNC3=O)C4)nc2)CC1 (stereo not shown) [Example D8, 8-cyclopentyl-2-((5-(4-methylpiperazin-1-yl)pyridin-2-yl)amino)-5,8-dihydro-7H-spiro[pyrido[2,3-d]pyrimidine-6,3′-pyrrolidine]-2′,7-dione] |
| 97.2 | 33.6 |  |  |  |  | CN1CCN(c2ccc(Nc3ncc4c(n3)N(C3CCCC3)C(=O)C3(CCN(C)C3=O)C4)cc2F)CC1 (stereo not shown) [Example D19, 8-cyclopentyl-2-((3-fluoro-4-(4-methylpiperazin-1-yl)phenyl)amino)-1′-methyl-5,8-dihydro-7H-spiro[pyrido[2,3-d]pyrimidine-6,3′-pyrrolidine]-2′,7-dione] |
| 13.1 | 8.68 |  |  |  |  | O=C1NCCC12Cc1cnc(Nc3ccc(N4CCNCC4)nc3)nc1N(C1CCCC1)C2=O (stereo not shown) [Example D7, 8-cyclopentyl-2-((6-(piperazin-1-yl)pyridin-3-yl)amino)-5,8-dihydro-7H-spiro[pyrido[2,3-d]pyrimidine-6,3′-pyrrolidine]-2′,7-dione] |
| 166 | 51.2 |  |  |  |  | CN1CCN(c2ccc(Nc3ncc4c(n3)N(C3CCCC3)C(=O)C3(CC(=O)N(C)C3=O)C4)cc2)CC1 (stereo not shown) [Example D21, 8-cyclopentyl-1′-methyl-2-((4-(4-methylpiperazin-1-yl)phenyl)amino)-5,8-dihydro-7H-spiro[pyrido[2,3-d]pyrimidine-6,3′-pyrrolidine]-2′,5′,7-trione] |
| 455 | 135 |  |  |  |  | CN1CCN(c2ccc(Nc3ncc4c(n3)N(C3CCCC3)C(=O)C3(CC(=O)N(C)C3=O)C4)cn2)CC1 (stereo not shown) [Example D25, 8-cyclopentyl-1′-methyl-2-((6-(4-methylpiperazin-1-yl)pyridin-3-yl)amino)-5,8-dihydro-7H-spiro[pyrido[2,3-d]pyrimidine-6,3′-pyrrolidine]-2′,5′,7-trione] |
| 65400 | 17100 |  |  |  |  | CN1C(=O)CC2(Cc3cnc(Nc4ccc(N5CCNCC5)cn4)nc3N(C3CCCC3)C2=O)C1=O (stereo not shown) [Example D23, 8-cyclopentyl-1′-methyl-2-((5-(piperazin-1-yl)pyridin-2-yl)amino)-5,8-dihydro-7H-spiro[pyrido[2,3-d]pyrimidine-6,3′-pyrrolidine]-2′,5′,7-trione] |
| 10.2 | 4.41 |  |  |  |  | O=C1NCCC12Cc1cnc(Nc3ccc(N4CCOCC4)c(F)c3)nc1N(C1CCCC1)C2=O (stereo not shown) [Example D17, 8-cyclopentyl-2-((3-fluoro-4-morpholinophenyl)amino)-5,8-dihydro-7H-spiro[pyrido[2,3-d]pyrimidine-6,3′-pyrrolidine]-2′,7-dione] |
| 6.38 | 3.35 |  |  |  |  | CN(C)CCOc1ccc(Nc2ncc3c(n2)N(C2CCCC2)C(=O)C2(CCNC2=O)C3)cc1 (stereo not shown) [Example D13, 8-cyclopentyl-2-((4-(2-(dimethylamino)ethoxy)phenyl)amino)-5,8-dihydro-7H-spiro[pyrido[2,3-d]pyrimidine-6,3′-pyrrolidine]-2′,7-dione] |
| 628 | 185 |  |  |  |  | CN1C(=O)CC2(Cc3cnc(Nc4ccc(OCCN5CCCC5)nc4)nc3N(C3CCCC3)C2=O)C1=O (stereo not shown) [Example D31, 8-cyclopentyl-1′-methyl-2-((6-(2-(pyrrolidin-1-yl)ethoxy)pyridin-3-yl)amino)-5,8-dihydro-7H-spiro[pyrido[2,3-d]pyrimidine-6,3′-pyrrolidine]-2′,5′,7-trione] |
|  |  | 2.32 | 1.54 |  |  | O=C1NCC[C@@]12Cc1cnc(Nc3ccc(N4CCC(N5CCOCC5)CC4)nc3)nc1N(C1CCCC1)C2=O [Example D193, (S)-8-cyclopentyl-2-((6-(4-morpholinopiperidin-1-yl)pyridin-3-yl)amino)-5,8-dihydro-7H-spiro[pyrido[2,3-d]pyrimidine-6,3′-pyrrolidine]-2′,7-dione] |
| 20.7 | 10.7 |  |  |  |  | CN(C)CCOc1ccc(Nc2ncc3c(n2)N(C2CCCC2)C(=O)C2(CCNC2=O)C3)cn1 (stereo not shown) [Example D14, 8-cyclopentyl-2-((6-(2-(dimethylamino)ethoxy)pyridin-3-yl)amino)-5,8-dihydro-7H-spiro[pyrido[2,3-d]pyrimidine-6,3′-pyrrolidine]-2′,7-dione] |
| 2.86 | 1.83 |  |  | 2.9 | 1.8 | CN1CCN(c2ccc(Nc3ncc4c(n3)N(C3CCCC3)C(=O)C3(CCNC3=O)C4)cc2F)CC1 (stereo not shown) [Example D12, 8-cyclopentyl-2-((3-fluoro-4-(4-methylpiperazin-1-yl)phenyl)amino)-5,8-dihydro-7H-spiro[pyrido[2,3-d]pyrimidine-6,3′-pyrrolidine]-2′,7-dione] |
| 360 | 83.6 |  |  |  |  | CC(C)N1CCN(c2ccc(Nc3ncc4c(n3)N(C3CCCC3)C(=O)C3(CCN(C)C3=O)C4)cc2)CC1 (stereo not shown) [Example D2, 8-cyclopentyl-2-((4-(4-isopropylpiperazin-1-yl)phenyl)amino)-1′-methyl-5,8-dihydro-7H-spiro[pyrido[2,3-d]pyrimidine-6,3′-pyrrolidine]-2′,7-dione] |
| 6.11 | 2.99 |  |  |  |  | CC(C)N1CCN(c2ccc(Nc3ncc4c(n3)N(C3CCCC3)C(=O)C3(CCNC3=O)C4)nc2)CC1 (stereo not shown) [Example D9, 8-cyclopentyl-2-((5-(4-isopropylpiperazin-1-yl)pyridin-2-yl)amino)-5,8-dihydro-7H-spiro[pyrido[2,3-d]pyrimidine-6,3′-pyrrolidine]-2′,7-dione] |
|  |  | 2.8 | 1.75 |  |  | CC(C)N1CCN(c2ccc(Nc3ncc4c(n3)N(C3CCCC3)C(=O)[C@]3(CCNC3=O)C4)cn2)CC1 [Example D151, (S)-8-cyclopentyl-2-((6-(4-isopropylpiperazin-1-yl)pyridin-3-yl)amino)-5,8-dihydro-7H-spiro[pyrido[2,3-d]pyrimidine-6,3′-pyrrolidine]-2′,7-dione] |
| 198 | 50.7 |  |  |  |  | CN1C(=O)CC2(Cc3cnc(Nc4ccc(N5CCNCC5)cc4)nc3N(C3CCCC3)C2=O)C1=O (stereo not shown) [Example D20, 8-cyclopentyl-1′-methyl-2-((4-(piperazin-1-yl)phenyl)amino)-5,8-dihydro-7H-spiro[pyrido[2,3-d]pyrimidine-6,3′-pyrrolidine]-2′,5′,7-trione] |
| 8.81 | 5.25 |  |  |  |  | O=C1NCCC12Cc1cnc(Nc3ccc(OCCN4CCCC4)c(F)c3)nc1N(C1CCCC1)C2=O (stereo not shown) [Example D16, 8-cyclopentyl-2-((3-fluoro-4-(2-(pyrrolidin-1-yl)ethoxy)phenyl)amino)-5,8-dihydro-7H-spiro[pyrido[2,3-d]pyrimidine-6,3′-pyrrolidine]-2′,7-dione] |
| 141 | 34.8 |  |  |  |  | CN1C(=O)CC2(Cc3cnc(Nc4ccc(N5CCNCC5)c(F)c4)nc3N(C3CCCC3)C2=O)C1=O (stereo not shown) [Example D27, 8-cyclopentyl-2-((3-fluoro-4-(piperazin-1-yl)phenyl)amino)-1′-methyl-5,8-dihydro-7H-spiro[pyrido[2,3-d]pyrimidine-6,3′-pyrrolidine]-2′,5′,7-trione] |
| 1050 | 367 |  |  |  |  | CN(C)CCOc1ccc(Nc2ncc3c(n2)N(C2CCCC2)C(=O)C2(CC(=O)N(C)C2=O)C3)cn1 (stereo not shown) [Example D29, 8-cyclopentyl-2-((6-(2-(dimethylamino)ethoxy)pyridin-3-yl)amino)-1′-methyl-5,8-dihydro-7H-spiro[pyrido[2,3-d]pyrimidine-6,3′-pyrrolidine]-2′,5′,7-trione] |
